Measured values reported in article PMC11596563, “N-Aryl Benzimidazole and Benzotriazole Derivatives and Their Hybrids as Cytotoxic Agents: Design, Synthesis and Structure–Activity Relationship Studies” (Molecules, 2024).

Experiments:
A549 = test: MTT test, cytotoxic effect; type: cell-based; conditions: Homo sapiens, 24 h treatment, 0.1 to 100 µM, concentration that causes 50% cell death
Protocol: (§1) At the first stage of biological testing, we studied the effect of the synthesized compounds on the survival of cells of both tumoral and normal origin. […] In our work, the cytotoxic profile of the synthesized molecules was assessed using the MTT test, based on the ability of a colorless tetrazolium salt (3-[4,5-dimethylthiazol-2-yl]-2,5-diphenyltetrazolium bromide, MTT) to be reduced to colored formazan in the presence of the mitochondrial enzymes of living cells. For this purpose, a number of cell lines of tumoral origin (SH-SY5Y, A549, MCF-7 and SW-480), as well as normal origin (Hek-293), were used.
(§2) For the experiments, we used tumor cell cultures SH-SY5Y, human neuroblast-like cells, A549, human lung adenocarcinoma, MCF-7, human mammary adenocarcinoma, SW-480 and human colorectal adenocarcinoma, as well as cells of normal origin obtained from human embryonic kidneys, Hek-293.
(§3) All cells were cultured in the Dulbecco Modified Eagle’s Medium (DMEM) with a high glucose content, 10% fetal bovine serum and 1% penicillin-streptomycin as an antibiotic, in a moist incubator with 5% CO2 at 37°C.
(§4) To measure cellular metabolic activity, a colorimetric analysis was performed using the MTT reagent (3-(4,5–dimethylthiazol-2-yl)-2,5-diphenyltetrazolium bromide), which is an inhibitor of viable cells [73, 74].
(§5) • Briefly, cells in the logarithmic growth phase were digested and resuspended to adjust the cell density. The cells were then seeded in 96-well plates at a density of 10,000 cells per well. After 24 h of the incubation of the cells under the standard conditions described above (for the purpose of cell adhesion), the cells were treated with the synthesized compounds at different concentrations (0.1 to 100 µM) or a vehicle alone as a control (1% DMSO) for 24 h. After the incubation time of the cells with synthesized compounds, 5 mg/mL of MTT was added to the cells and incubated for 2 h at 37 °C. Next, the supernatant was discarded; after that, the formazan crystals were dissolved in a DMSO and the absorbance of each well was measured at 570 nm using a multifunctional microplate reader, Cytation3 (Biotech Tools Inc., Winooski, USA).

MCF-7 = test: MTT test, cytotoxic effect; type: cell-based; conditions: Homo sapiens, MCF7, 24 h treatment, 0.1 to 100 µM, concentration that causes 50% cell death
Protocol: as §1, §2, §3, §4, §5

SH-SY5Y = test: cells; conditions: Homo sapiens, 24 h, read-out: IC50 of the cytotoxic effect, SH-SY5Y
Protocol: as §1, §2, §3, §4, §5

[1] = MTT test, cytotoxic effect on cells of normal origin; type: cell-based, human; conditions: human, Hek-293 cells (normal origin), 24 h treatment, 0.1 to 100 µM, normal cells, concentration that causes 50% cell death
Protocol: as §1, §2, §3, §4, §5

SW-480 = test: MTT test, cytotoxic effect; type: cell-based; conditions: Homo sapiens, SW480, 24 h treatment, 0.1 to 100 µM, concentration that causes 50% cell death
Protocol: as §1, §2, §3, §4, §5

Hek-293 = test: MTT test, cytotoxic effect on cells of normal origin; type: cell-based, human; conditions: Hek-293
Protocol: as §1, §2, §3, §4, §5

A549 cells = test: Wound-healing assay (scratch test); type: cell-based, human; conditions: 1 μM
From the text: It is also well known that migration and proliferation of cancer cells are key processes involved in the metastatic cascade of malignant neoplasms. In turn, the ability of therapeutic agents to inhibit these processes is considered a promising property of antitumor agents. In this regard, in order to assess the possible antimetastatic potential of cytotoxic diphenylamines 6b, c and d, we analyzed the effect of the substances on the migration and proliferation of tumor cells A549 in a scratch test.
Based on a preliminary series of experiments, 1 μM was chosen as the concentration used in this test, excluding the intrinsic cytotoxic effect of the substances. […] Thus, the data obtained 24 h after the damage was applied allowed us to evaluate the migration capacity of the cells, minimizing the contribution of cell proliferation.
The migration activity of A549 cells was determined by the wound-healing assay (scratch test). To do this, cells (15,000 cells per well) were seeded in a 96-well plate and cultured under the standard conditions described above. After 24 h of incubation, when the cells became 90% confluent, the medium was selected and an identical scratch wound across the center of each well was made by a 200 µL pipette tip.
To remove detached cells, the cell monolayer was washed twice with PBS; after that, the growth media and test compounds at 1 µM (or 1% DMSO as a solvent) were added to each well. A phase contrast microscope at a ×40 magnification was used to take photomicrographs after making the wound and then 24 h, 48 h and 72 h later.
The analysis of the obtained images was calculated using the open-source program ImageJ [80] and a special module: Wound_healing_size_tool.

[2] = test system: Fe(II)-induced lipid peroxidation (LPO) of rat brain homogenate; test: Fe(II)-induced lipid peroxidation, modified TBARS test; type: biochemical; conditions: Fe(II) 500 μM, rat brain homogenate 2 mg/mL; for IC50: 1 to 300 μM, read-out: IC50 of the lipid peroxidation inhibitory effect
Protocol: In our work, the antioxidant status of the compounds was determined by their ability to influence the process of Fe(II)-induced lipid peroxidation (LPO) of rat brain homogenate (2 mg/mL). The effect of the substances on LPO was studied using a modified version of the TBA test in a plate format. This test is based on the reaction of 2-thiobarbituric acid with intermediate LPO products, resulting in the formation of a colored trimethine complex, the main role in the formation of which belongs to malondialdehyde. […] This was expressed in a decrease in the level of malondialdehyde in the system by 70, 79 and 71%, respectively, tending to the values of the well-known antioxidant Trolox. Additionally, the IC50 values of the lipid peroxidation inhibitory effect were calculated for these molecules, the values of which are presented in Figure 2B.
To obtain rat brain homogenate, an animal previously anesthetized in a CO2 chamber was decapitated using a guillotine. The brain was homogenized in a buffer containing KCl (120 mM) and HEPES (20 mM), pH = 7.4 at 4 ° C and centrifuged at 1500 g to obtain a supernatant.
The intensity of the lipid peroxidation of the rat brain homogenate was evaluated using a modified TBARS test. […] In the wells of the negative control, the Fe(II) was replaced with water; in samples with a positive control, a solvent was introduced instead of the studied compounds.
At the end of incubation, a TBA reagent ([…] thiobartituric and 1% trichloroacetic acids dissolved in 0.25 N HCl) was added to each well and heated at 90 °C for 90 min.

melting point	IC50 [2]	Compound	IC50 (A549)	IC50 (MCF-7)	IC50 (SH-SY5Y)	IC50 at 24 h [1]	IC50 (SW-480)	cytotoxic effect on cell line of normal origin (Hek-293)	migration capacity, decrease in the scratch width vs control (A549 cells; 24 h after the damage)	ability to suppress the migratory activity of A549 tumor cells (A549 cells; conclusion)	decrease in the level of malondialdehyde ([2]; compounds at 100 μM)
130 to 132 °C		O=[N+]([O-])c1cc(C(F)(F)F)ccc1-n1cnc2ccccc21 [3a, 1-(2-Nitro-4-(trifluoromethyl)phenyl)-1H-benzimidazole]	≥ 100 µM	92.4 ± 1.4 µM	62.2 ± 0.11 µM	77.3 ± 2.12 µM	≥ 100 µM				
102 to 105 °C		O=[N+]([O-])c1cc(Cl)ccc1-n1cnc2ccccc21 [3b, 1-(4-Chloro-2-nitrophenyl)-1H-benzimidazole]	≥ 100 µM	≥ 100 µM	≥ 100 µM	≥ 100 µM	≥ 100 µM				
133 to 136 °C		O=[N+]([O-])c1cc(C(F)(F)F)ccc1-n1nnc2ccccc21 [3c, 1-[2-Nitro-4-(trifluoromethyl)phenyl]-1H-benzotriazole]	≥ 100 µM	≥ 100 µM	≥ 100 µM	≥ 100 µM	≥ 100 µM				
115 to 119 °C		CCOC(=O)c1ccc(-n2nnc3ccccc32)c([N+](=O)[O-])c1 [3d, Ethyl 4-(1H-benzotriazol-1-yl)-3-nitrobenzoate]	≥ 100 µM	≥ 100 µM	≥ 100 µM	≥ 100 µM	≥ 100 µM				
134 to 137 °C		O=[N+]([O-])c1cc(Cl)ccc1-n1nnc2ccccc21 [3e, 1-(4-Chloro-2-nitrophenyl)-1H-benzotriazole]	≥ 100 µM	≥ 100 µM	≥ 100 µM	≥ 100 µM	≥ 100 µM				
209 to 210 °C		Nc1cc(C(F)(F)F)ccc1-n1cnc2ccccc21 [4a, 2-(1H-benzimidazol-1-yl)-5-(trifluoromethyl)aniline]	67.17 ± 0.12 µM	65.26 ± 0.07 µM	66.75 ± 0.41 µM	82.89 ± 0.46 µM	84.03 ± 0.38 µM				
192 to 195 °C		Nc1cc(Cl)ccc1-n1cnc2ccccc21 [4b, 2-(1H-benzimidazol-1-yl)-5-chloroaniline]	≥ 100 µM	≥ 100 µM	≥ 100 µM	≥ 100 µM	≥ 100 µM				
136 to 139 °C		Nc1cc(C(F)(F)F)ccc1-n1nnc2ccccc21 [4c, 2-(1H-benzotriazol-1-yl)-5-(trifluoromethyl)aniline]	65.38 ± 0.17 µM	75.2 ± 1.43 µM	39.59 ± 0.05 µM	≥ 100 µM	≥ 100 µM	without affecting the survival			
132 to 136 °C		CCOC(=O)c1ccc(-n2nnc3ccccc32)c(N)c1 [4d, Ethyl 3-amino-4-(1H-benzotriazol-1-yl)benzoate]	≥ 100 µM	≥ 100 µM	≥ 100 µM	≥ 100 µM	≥ 100 µM				
154 to 156 °C		Nc1cc(Cl)ccc1-n1nnc2ccccc21 [4e, 2-(1H-benzotriazol-1-yl)-5-chloroaniline]	91.87 ± 0.02 µM	82.48 ± 0.32 µM	99.1 ± 1.47 µM	87.4 ± 1.42 µM	≥ 100 µM				
180 to 183 °C		O=[N+]([O-])c1cc(C(F)(F)F)ccc1Nc1cc(C(F)(F)F)ccc1-n1cnc2ccccc21 [5a, N-[2-(1H-benzimidazol-1-yl)-5-(trifluoromethyl)phenyl]-2-nitro-4-(trifluoromethyl)aniline]	≥ 100 µM	≥ 100 µM	≥ 100 µM	≥ 100 µM	≥ 100 µM				
203 to 204 °C		O=[N+]([O-])c1cc(C(F)(F)F)ccc1Nc1cc(C(F)(F)F)ccc1-n1nnc2ccccc21 [5b, N-[2-(1H-benzotriazol-1-yl)-5-(trifluoromethyl)phenyl]-2-nitro-4-(trifluoromethyl)aniline]	≥ 100 µM	≥ 100 µM	≥ 100 µM	≥ 100 µM	≥ 100 µM				
192 to 196 °C		CCOC(=O)c1ccc(Nc2cc(C(F)(F)F)ccc2-n2nnc3ccccc32)c([N+](=O)[O-])c1 [5c, Ethyl 4-[2-(1H-benzotriazol-1-yl)-5-(trifluoromethyl)anilino]-3-nitrobenzoate]	≥ 100 µM	≥ 100 µM	≥ 100 µM	≥ 100 µM	≥ 100 µM				
178 to 181 °C		O=[N+]([O-])c1cc(C(F)(F)F)ccc1Nc1cc(Cl)ccc1-n1nnc2ccccc21 [5d, N-[2-(1H-benzotriazol-1-yl)-5-chlorophenyl]-2-nitro-4-(trifluoromethyl)aniline]	≥ 100 µM	≥ 100 µM	≥ 100 µM	≥ 100 µM	≥ 100 µM				
178 to 181 °C	1.11 ± 0.13 µM	CCOC(=O)c1ccc(Nc2cc(C(F)(F)F)ccc2-n2nnc3ccccc32)c(N)c1 [6c, Ethyl 3-amino-4-[2-(1H-benzotriazol-1-yl)-5-(trifluoromethyl)anilino]benzoate]	37.68 ± 0.2 µM	77.05 ± 0.67 µM	20.94 ± 0.13 µM	≥ 100 µM	≥ 100 µM	did not exert a cytotoxic effect	did not find any differences	failed to demonstrate the ability to suppress the migratory activity	79%
124 to 128 °C		FC(F)(F)c1ccc(-n2nnc3ccccc32)c(-n2cnc3cc(C(F)(F)F)ccc32)c1 [7a, 1-{4-(trifluoromethyl)-2-[5-(trifluoromethyl)-1H-benzimidazol-1-yl]phenyl}-1H-benzotriazole]	≥ 100 µM	≥ 100 µM	≥ 100 µM	≥ 100 µM	≥ 100 µM				
100 to 104 °C		CCOC(=O)c1ccc2c(c1)ncn2-c1cc(C(F)(F)F)ccc1-n1nnc2ccccc21 [7b, Ethyl 1-[2-(1H-benzotriazol-1-yl)-5-(trifluoromethyl)phenyl]-1H-benzimidazole-5-carboxylate]	≥ 100 µM	≥ 100 µM	≥ 100 µM	≥ 100 µM	≥ 100 µM				
136 to 141 °C		FC(F)(F)c1ccc2c(c1)ncn2-c1cc(Cl)ccc1-n1nnc2ccccc21 [7c, 1-{4-Chloro-2-[5-(trifluoromethyl)-1H-benzimidazol-1-yl]phenyl}-1H-benzotriazole]	≥ 100 µM	45.12 ± 0.22 µM	≥ 100 µM	36.27 ± 0.14 µM	≥ 100 µM				
153 to 156 °C		ONc1cc(C(F)(F)F)ccc1-n1cnc2ccccc21 [8a, N-(2-(1H-benzimidazol-1-yl)-5-(trifluoromethyl)phenyl)hydroxylamine]									
151 to 154 °C		ONc1cc(C(F)(F)F)ccc1-n1nnc2ccccc21 [8b, N-(2-(1H-benzotriazol-1-yl)-5-(trifluoromethyl)phenyl)hydroxylamine]									
	32.45 ± 0.24 µM	Cc1c(C)c2c(c(C)c1O)CCC(C)(C(=O)O)O2 (stereo not drawn) [Trolox, reference compound]									
